Where “and” joins values, the source holds several entries; their conditions need not be identical. Identical values can stand only once. Like-named read-outs stand apart in the source and are kept apart here.
How the values were obtained:
PSMA = target: T1, PSMA (Homo sapiens, UniProt Q04609); experiment: Determination of IC50: PSMA affinity, competitive binding on LNCaP cells against ([125I]I-BA)KuE
T1 construct: endogenous in cells; host or cells: LNCaP cells
Description: Data are expressed as mean±SD (n=3, in 3 different experiments).
After removal of the culture medium, the cells were treated once with 500 μL of HBSS (Hank's balanced salt solution, Biochrom, Berlin, Germany, with addition of 1% bovine serum albumin (BSA)) and left 15 min on ice for equilibration in 200 μL HBSS (1% BSA). […] Quantification of bound and free radioligand was accomplished in a γ-counter.

[1] = system: PSMA-positive LNCaP cells; experiment: Internalization in LNCaP cells, normalized to ([125I]I-BA)KuE; type: cell-based; conditions: for individual internalization rates / internalization rate Mean: LNCaP cells, 1 hour, 37° C.; for individual internalization rates: c=0.5 nM, single measurements
Description: Data is corrected for non-specific binding ([…]) and expressed as mean±SD (n=3).
Subsequent to the removal of the culture medium, the cells were washed once with 500 μL DMEM-F12 (5% BSA) and left to equilibrate for at least 15 min at 37° C. in 200 μL DMEM-F12 (5% BSA). Each well was treated with either 25 μL of either DMEM-F12 (5% BSA) or a 100 μM PMPA solution for blockade. Next, 25 μL of the ^68Ga/^18F-labeled PSMA inhibitor (5.0 nM) was added and the cells incubated at 37° C. for 60 min. The experiment was terminated by placing the 24-well plate on ice for 3 min and consecutive removal of the medium. Each well was rinsed with 250 μL HBSS and the fractions from these first two steps combined, representing the amount of free radioligand. Removal of surface bound activity was accomplished by incubation of the cells with 250 μL of ice-cold PMPA (10 μM in PBS) solution for 5 min and rinsed again with another 250 μL of ice-cold PBS. The internalized activity was determined by incubation of the cells in 250 μL 1 M NaOH and the combination with the fraction of a subsequent wash step with 250 μL 1.0 M NaOH. Each experiment (control and blockade) was performed in triplicate. Free, surface bound and internalized activity was quantified in a γ-counter. […] Data were corrected for non-specific internalization and normalized to the specific-internalization observed for the radioiodinated reference compound.

[2] = Octanol-water partition coefficient (n-octanol/PBS pH 7.4); type: physicochemical; conditions: for log P: octanol/PBS7.4, (n = 6)
Description: Approximately 1 MBq of the labeled tracer was dissolved in 1 mL of a 1:1 mixture (by volumes) of phosphate buffered saline (PBS, pH 7.4) and n-octanol in an Eppendorf tube. After vigorous mixing of the suspension for 3 minutes at room temperature, the vial was centrifuged at 15000 g for 3 minutes (Biofuge 15, Heraus Sepatech, Osterode, Germany) and 100 μL aliquots of both layers were measured in a gamma counter. The experiment was repeated at least six times.
Determianation of the IogP values was carried out in phosphate buffered saline (PBS, pH 7.4) and n-octanol (=logPoct/PBS).

[3] = system: LNCaP tumor-bearing SCID mice; experiment: Biodistribution at 1 h p.i.; type: in vivo; conditions: for Biodistribution tumor: LNCaP tumor
Description: FIG. 10: Biodistribution (in % ID/g) of ^18E-labeled rhPSMA tracers at 1 h p.i in LNCaP tumor-bearing SCID mice. Data are expressed as mean±SD (n=4 for rhPSMA7.1, n=5 for 7.2, n=4 for 7.3, n=5 for 7.4 and n=3 for 7-rac).

[4] = system: LNCaP tumor-bearing SCID mice; experiment: Biodistribution at 1 h p.i. with competition (co-injected PMPA); type: in vivo; conditions: co-injected with PMPA (8 mg/kg); for Biodistribution tumor: LNCaP tumor
Description: FIG. 11: Biodistribution [% ID/g] of ^18F-rhPSMAs co-injected with PMPA (8 mg/kg) at 1 h p.i in LNCaP tumor-bearing SCID mice. Data are expressed as mean±SD (n=3).

human serum albumin [5] = target: T2, human serum albumin (Homo sapiens, UniProt P02768); experiment: HSA binding on Chiralpak HSA column; type: in vitro ADME; conditions: for HSA Binding: Chiralpak HSA column (50 × 3 mm, 5 μm); for Log K HSA: reference substances for calibration of the HSA-column
T2 construct: purchased H13H-2433
Description: The mobile phase (A: NH4OAc, 50 mM in water, pH 7 and B: isopropanol) was freshly prepared for each experiment and only used for one day. The column was kept at room temperature and each run was stopped after detection of the signal to reduce the acquisition time. All substances were dissolved in a 0.5 mg/ml concentration in 50% 2-propanol and 50% 50 mM pH 6.9 ammonium acetate buffer. […] All nine reference substances were injected consecutively to establish a non-linear regression with Origin Pro 2016G.

human serum albumin [6] = target: T2, human serum albumin; conditions: reference substances for calibration of the HSA-column; cited from earlier work
[7] = Wängler et al. 2010; cited from earlier work
[8] = LNCaP cells, [125I]IB-KuE c=0.2 nM, 1 h, 4° C., HBSS+1% BSA, single measurements, read-out: individual IC50 measurements
[9] = LNCaP cells, [125I]IB-KuE c=0.2 nM, 1 h, 4° C., mean of individual measurements, read-out: IC50 Mean

T1 sequence (Q04609 whole entry): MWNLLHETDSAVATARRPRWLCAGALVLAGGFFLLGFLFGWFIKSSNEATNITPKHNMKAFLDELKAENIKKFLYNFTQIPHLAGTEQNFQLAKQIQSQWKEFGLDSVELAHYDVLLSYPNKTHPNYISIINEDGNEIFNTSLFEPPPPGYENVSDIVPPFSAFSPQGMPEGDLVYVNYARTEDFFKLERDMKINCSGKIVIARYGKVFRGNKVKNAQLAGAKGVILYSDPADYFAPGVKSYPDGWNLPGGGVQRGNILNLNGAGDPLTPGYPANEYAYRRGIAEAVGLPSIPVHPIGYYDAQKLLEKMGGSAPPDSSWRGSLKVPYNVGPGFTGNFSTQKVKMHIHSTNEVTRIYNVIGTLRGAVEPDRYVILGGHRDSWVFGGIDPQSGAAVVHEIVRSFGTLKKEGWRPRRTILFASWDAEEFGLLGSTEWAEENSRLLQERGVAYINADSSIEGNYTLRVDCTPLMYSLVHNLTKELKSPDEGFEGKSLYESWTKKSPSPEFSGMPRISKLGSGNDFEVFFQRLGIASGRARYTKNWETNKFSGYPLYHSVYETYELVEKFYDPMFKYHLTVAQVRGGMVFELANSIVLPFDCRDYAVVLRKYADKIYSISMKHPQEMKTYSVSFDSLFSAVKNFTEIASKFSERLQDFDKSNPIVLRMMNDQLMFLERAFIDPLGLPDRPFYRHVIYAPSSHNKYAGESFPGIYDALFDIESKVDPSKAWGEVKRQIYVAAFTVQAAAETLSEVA
T2 sequence (P02768 25-609): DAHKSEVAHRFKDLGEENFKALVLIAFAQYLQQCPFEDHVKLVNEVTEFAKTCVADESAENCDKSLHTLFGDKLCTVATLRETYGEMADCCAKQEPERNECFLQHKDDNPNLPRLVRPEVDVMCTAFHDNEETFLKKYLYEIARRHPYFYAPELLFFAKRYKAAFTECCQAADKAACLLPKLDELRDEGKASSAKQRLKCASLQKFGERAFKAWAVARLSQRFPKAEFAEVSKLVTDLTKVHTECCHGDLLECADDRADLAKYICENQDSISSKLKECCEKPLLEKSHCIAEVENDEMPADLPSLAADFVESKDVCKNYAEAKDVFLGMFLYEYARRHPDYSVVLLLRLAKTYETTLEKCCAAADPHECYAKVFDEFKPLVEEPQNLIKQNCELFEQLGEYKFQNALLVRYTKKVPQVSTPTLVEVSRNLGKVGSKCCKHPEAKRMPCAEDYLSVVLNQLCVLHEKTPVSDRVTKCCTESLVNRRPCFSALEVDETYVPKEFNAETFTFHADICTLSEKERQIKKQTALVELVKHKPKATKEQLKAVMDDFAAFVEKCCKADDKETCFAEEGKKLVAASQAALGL

With `CC(C)(C)[Si](F)(c1ccc(C(=O)NC[C@H](NC(=O)CC[C@H](C(=O)O)N2CCN(CC(=O)[O-])CCN(CC(=O)[O-])CCN(CC(=O)[O-])CC2)C(=O)N[C@H](CCCCNC(=O)CCC(=O)NCCC[C@@H](NC(=O)CC[C@H](NC(=O)N[C@@H](CCC(=O)O)C(=O)O)C(=O)O)C(=O)O)C(=O)O)cc1)C(C)(C)C.[Ga+3]` [rhPSMA7.2, [^19F][^natGa]L-Dap-R-DOTAGA-rhPSMA7] the IC50 (PSMA; [8]) was 2.64 nM and 2.76 nM and 3.94 nM and 5.8 nM and 4.31 nM and 4.32 nM and 3.17 nM and 2.97 nM and 3.36 nM, the IC50 (PSMA; [9]) was 3.7 nM and the individual internalization rates [1] was 192.3 % of [^125I]IB-KuE and 188.7 % of [^125I]IB-KuE and 182.7 % of [^125I]IB-KuE and 169.5 % of [^125I]IB-KuE and 205.3 % of [^125I]IB-KuE and 212.6 % of [^125I]IB-KuE. For the same compound, the “internalization rate Mean” value [1] was 191.83 % of [^125I]IB-KuE, the “log P” value [2] was −3.13 ± 0.22 and the “log P Mean” value ([2]; octanol/PBS7.4, mean of individual measurements) was −3.13. The “individual log P measurements” value ([2]; octanol/PBS7.4, single measurements) was −3.03 and −2.96 and −2.94 and −2.89 and −3.02 and −3.06 and −2.99 and −3.14 and −3.40 and −3.50 and −3.45 and −3.53 and −3.48 and −3.00 and −3.01, the Biodistribution adrenals [3] was 1.3 ± 0.8 % ID/g and the Biodistribution blood [3] was 0.56 ± 0.20 % ID/g. For the same compound, the Biodistribution bone [3] was 0.31 ± 0.24 % ID/g, the Biodistribution heart [3] was 0.32 ± 0.13 % ID/g and the Biodistribution intestine [3] was 0.18 ± 0.07 % ID/g. The Biodistribution kidneys [3] was 87.6 ± 28.8 % ID/g, the Biodistribution liver [3] was 0.35 ± 0.08 % ID/g and the Biodistribution lung [3] was 0.89 ± 0.38 % ID/g. The Biodistribution muscle [3] was 0.13 ± 0.07 % ID/g, the Biodistribution pancreas [3] was 0.21 ± 0.08 % ID/g and the Biodistribution spleen [3] was 10.1 ± 6.3 % ID/g. For the same compound, the Biodistribution stomach [3] was 0.19 ± 0.08 % ID/g, the Biodistribution tumor [3] was 6.5 ± 2.3 % ID/g and the Biodistribution adrenals [4] was 0.07 ± 0.10 % ID/g. For the same compound, the Biodistribution blood [4] was 1.1 ± 0.31 % ID/g, the Biodistribution bone [4] was 0.57 ± 0.39 % ID/g and the Biodistribution heart [4] was 0.47 ± 0.09 % ID/g. The Biodistribution intestine [4] was 0.33 ± 0.10 % ID/g, the Biodistribution kidneys [4] was 10.9 ± 1.0 % ID/g and the Biodistribution liver [4] was 0.46 ± 0.07 % ID/g. It also gave a Biodistribution lung [4] of 1.1 ± 0.32 % ID/g, a Biodistribution muscle [4] of 0.09 ± 0.03 % ID/g and a Biodistribution pancreas [4] of 0.12 ± 0.05 % ID/g. It also gave a Biodistribution spleen [4] of 0.26 ± 0.07 % ID/g, a Biodistribution stomach [4] of 0.21 ± 0.06 % ID/g and a Biodistribution tumor [4] of 1.0 ± 0.13 % ID/g. The “HSA Binding” value (human serum albumin [5]) was 97.8%.
For `COc1ccc(Cl)cc1C(=O)NCCc1ccc(S(=O)(=O)NC(=O)NC2CCCCC2)cc1` [Glibenclamide], the “Lit. HSA % (literature value of human serum albumin binding)” value (from here on “Lit. HSA %”) (human serum albumin [6]) is listed as 99.00% and the “Log K HSA” value (human serum albumin [5]) is listed as 1.69.
For `Oc1ccccc1` [Phenol], the “Lit. HSA %” value (human serum albumin [6]) is listed as 20.69% and the “Log K HSA” value (human serum albumin [5]) is listed as −0.59.
For SIFA-Asn(AcNH-β-Glc)-Tyr^3-octreotate, the “log P(ow)” value [7] is given as 1.23.
For `O=C(O)c1ccccc1` [Benzoic Acid], the “Lit. HSA %” value (human serum albumin [6]) is given as 34.27%.
In the case of PSMA-1007 [reference compound], the IC50 (PSMA; identical binding assay, carried out in our lab (Robu et al. 2018), read-out: IC50 of other selected PSMA inhibitors) is reported as 4.2 ± 0.5 nM, the “internalization of other selected PSMA inhibitors” value ([1]; identical assay, carried out in our lab (Robu et al. 2018)) is reported as 118 ± 4 % of [^125I]IB-KuE and the “log P” value [2] is reported as −1.6. For the same compound, the “HSA Binding” value (human serum albumin [5]) was 97.8%.
In the case of `Nc1ccccc1` [Aniline], the “Lit. HSA %” value (human serum albumin [6]) is listed as 14.06% and the “Log K HSA” value (human serum albumin [5]) is listed as −0.79.
In the case of `CCCN(CCC)S(=O)(=O)c1ccc(C(=O)O)cc1` [Probenecid], the “Lit. HSA %” value (human serum albumin [6]) is given as 95.00%.
With “[^19F][^natGa]L-Dap-S-DOTAGA-rhPSMA7 [rhPSMA7.4]” the IC50 (PSMA; [8]) was 3.4 nM and 3.56 nM and 2.79 nM and 4.57 nM and 3.78 nM, the IC50 (PSMA; [9]) was 3.62 nM and the individual internalization rates [1] was 209.6 % of [^125I]IB-KuE and 202.6 % of [^125I]IB-KuE and 209.8 % of [^125I]IB-KuE. For the same compound, the “internalization rate Mean” value [1] was 207.33±4.06 % of [^125I]IB-KuE and 207.33 % of [^125I]IB-KuE, the Biodistribution adrenals [3] was 3.57 ± 2.38 % ID/g and the Biodistribution blood [3] was 1.15 ± 0.30 % ID/g. The Biodistribution bone [3] was 0.62 ± 0.30 % ID/g, the Biodistribution heart [3] was 0.71 ± 0.26 % ID/g and the Biodistribution intestine [3] was 0.37 ± 0.09 % ID/g. It also gave a Biodistribution kidneys [3] of 153 ± 80.3 % ID/g, a Biodistribution liver [3] of 0.69 ± 0.20 % ID/g and a Biodistribution lung [3] of 1.59 ± 0.61 % ID/g. It also gave a Biodistribution muscle [3] of 0.31 ± 0.08 % ID/g, a Biodistribution pancreas [3] of 0.50 ± 0.30 % ID/g and a Biodistribution spleen [3] of 18.4 ± 9.77 % ID/g. It also gave a Biodistribution stomach [3] of 0.25 ± 0.06 % ID/g, a Biodistribution tumor [3] of 18.9 ± 3.27 % ID/g and a Biodistribution adrenals [4] of 0.03 ± 0.04 % ID/g. The Biodistribution blood [4] was 0.82 ± 0.17 % ID/g, the Biodistribution bone [4] was 1.0 ± 0.8 % ID/g and the Biodistribution heart [4] was 0.37 ± 0.05 % ID/g. It also gave a Biodistribution intestine [4] of 0.36 ± 0.08 % ID/g, a Biodistribution kidneys [4] of 7.2 ± 2.4 % ID/g and a Biodistribution liver [4] of 0.48 ± 0.14 % ID/g. For the same compound, the Biodistribution lung [4] was 0.74 ± 0.14 % ID/g, the Biodistribution muscle [4] was 0.20 ± 0.05 % ID/g and the Biodistribution pancreas [4] was 0.18 ± 0.09 % ID/g. The Biodistribution spleen [4] was 0.28 ± 0.15 % ID/g, the Biodistribution stomach [4] was 0.20 ± 0.07 % ID/g and the Biodistribution tumor [4] was 0.99 ± 0.19 % ID/g. For the same compound, the “HSA Binding” value (human serum albumin [5]) was 96.6%.
With `O=C(O)CC[C@H](NC(=O)N[C@@H](CCCCNC(=O)c1ccc(F)nc1)C(=O)O)C(=O)O` [DCFPyL, reference compound] the logP ([2]; pH 7.4) was -3.4 and the “HSA Binding” value (human serum albumin [5]) was 14.3%.
For “SIFA-Asn(AcNH-β-Glc)-PEG-Tyr^3-octreotate”, the “log P(ow)” value [7] is listed as 0.96.

Source: patent US12357711B2, “PSMA binding dual mode radiotracer and therapeutic” (Technische Universität München, priority 2019, dated 2025)
